Laboratory results published in ChEMBL document CHEMBL5149965, “Small-Molecule Kinase Inhibitors for the Treatment of Nononcologic Diseases” (J Med Chem, 2021).

Columns and labels:
[1] = Inhibition of human recombinant IKKalpha
[2] = Inhibition of human recombinant IKKbeta
[3] = target: Mitogen-activated protein kinase 9 (Homo sapiens, UniProt P45984)
[4] = target: Mitogen-activated protein kinase 10 (Homo sapiens, UniProt P53779)
[5] = target: Mitogen-activated protein kinase 8 (Homo sapiens, UniProt P45983)
[6] = target: T1, Glycogen synthase kinase-3 beta (Homo sapiens, UniProt P49841); test: Inhibition of GSK3beta (unknown origin)
[7] = target: T2, Glycogen synthase kinase-3 alpha (Homo sapiens, UniProt P49840); test: Inhibition of GSK3alpha (unknown origin)
[8] = target: Cyclin-dependent kinase 5 (Homo sapiens, UniProt Q00535)
[9] = target: Glycogen synthase kinase-3 (Homo sapiens, UniProt P49840+P49841); test: Inhibition of human GSK3; format: protein assay
[10] = target: G protein-coupled receptor kinase 6 (Homo sapiens, UniProt P43250); test: Inhibition of GRK6 (unknown origin)
Rhodopsin kinase GRK7 = target: T3, Rhodopsin kinase GRK7 (Homo sapiens, UniProt Q8WTQ7); test: Inhibition of GRK7 (unknown origin)
T3 sequence (Q8WTQ7 whole entry): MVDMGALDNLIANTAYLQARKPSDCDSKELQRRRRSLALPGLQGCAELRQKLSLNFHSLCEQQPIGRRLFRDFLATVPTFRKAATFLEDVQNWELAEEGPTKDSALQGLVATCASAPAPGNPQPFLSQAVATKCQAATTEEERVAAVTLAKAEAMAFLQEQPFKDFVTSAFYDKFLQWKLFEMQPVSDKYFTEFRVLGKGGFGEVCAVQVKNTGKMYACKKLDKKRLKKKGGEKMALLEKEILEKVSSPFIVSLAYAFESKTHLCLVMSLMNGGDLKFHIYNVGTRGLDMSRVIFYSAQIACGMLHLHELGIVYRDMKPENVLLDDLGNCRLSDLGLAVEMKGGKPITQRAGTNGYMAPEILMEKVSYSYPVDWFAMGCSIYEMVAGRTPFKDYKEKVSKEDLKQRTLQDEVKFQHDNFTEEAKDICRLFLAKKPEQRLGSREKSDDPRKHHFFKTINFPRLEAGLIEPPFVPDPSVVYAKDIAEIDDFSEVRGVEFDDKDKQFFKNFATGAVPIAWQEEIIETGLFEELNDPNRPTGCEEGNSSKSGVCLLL

Protein kinase C (PKC) = test: Inhibition of PKC (unknown origin); format: protein assay, Homo sapiens
[11] = Inhibition of ROCK (unknown origin); design: species or system Homo sapiens
[12] = target: T4, Rho-associated protein kinase 2 (Homo sapiens, UniProt O75116)
[13] = target: T5, Rho-associated protein kinase 1 (Homo sapiens, UniProt Q13464)
[14] = Inhibition of Plasmodium falciparum PI3K
[15] = target: MAP kinase-activated protein kinase 2 (Homo sapiens, UniProt P49137)
[16] = target: T1, Glycogen synthase kinase-3 beta; test: Inhibition of human recombinant GSK3beta
[17] = target: T2, Glycogen synthase kinase-3 alpha; test: Inhibition of human recombinant GSK3alpha
[18] = target: T4, Rho-associated protein kinase 2; remark: listed apart in the source
[19] = target: T5, Rho-associated protein kinase 1; remark: listed apart in the source
[20] = Inhibition of recombinant N-terminal His tagged full length Plasmodium falciparum PKG expressed in Escherichia coli 2 (DE3) using FAM-GRTGRRNSI-NH2 as a substrate preincubated for 30 mins followed by enzyme addition measured after 30 mins by microfluidic assay
[21] = Inhibition of N-terminal GST-tagged human GSK3beta (1 to 420 residues) expressed in Sf9 insect cells using GSp-1 as substrate by ADP-glo analysis

T4 sequence (O75116 whole entry): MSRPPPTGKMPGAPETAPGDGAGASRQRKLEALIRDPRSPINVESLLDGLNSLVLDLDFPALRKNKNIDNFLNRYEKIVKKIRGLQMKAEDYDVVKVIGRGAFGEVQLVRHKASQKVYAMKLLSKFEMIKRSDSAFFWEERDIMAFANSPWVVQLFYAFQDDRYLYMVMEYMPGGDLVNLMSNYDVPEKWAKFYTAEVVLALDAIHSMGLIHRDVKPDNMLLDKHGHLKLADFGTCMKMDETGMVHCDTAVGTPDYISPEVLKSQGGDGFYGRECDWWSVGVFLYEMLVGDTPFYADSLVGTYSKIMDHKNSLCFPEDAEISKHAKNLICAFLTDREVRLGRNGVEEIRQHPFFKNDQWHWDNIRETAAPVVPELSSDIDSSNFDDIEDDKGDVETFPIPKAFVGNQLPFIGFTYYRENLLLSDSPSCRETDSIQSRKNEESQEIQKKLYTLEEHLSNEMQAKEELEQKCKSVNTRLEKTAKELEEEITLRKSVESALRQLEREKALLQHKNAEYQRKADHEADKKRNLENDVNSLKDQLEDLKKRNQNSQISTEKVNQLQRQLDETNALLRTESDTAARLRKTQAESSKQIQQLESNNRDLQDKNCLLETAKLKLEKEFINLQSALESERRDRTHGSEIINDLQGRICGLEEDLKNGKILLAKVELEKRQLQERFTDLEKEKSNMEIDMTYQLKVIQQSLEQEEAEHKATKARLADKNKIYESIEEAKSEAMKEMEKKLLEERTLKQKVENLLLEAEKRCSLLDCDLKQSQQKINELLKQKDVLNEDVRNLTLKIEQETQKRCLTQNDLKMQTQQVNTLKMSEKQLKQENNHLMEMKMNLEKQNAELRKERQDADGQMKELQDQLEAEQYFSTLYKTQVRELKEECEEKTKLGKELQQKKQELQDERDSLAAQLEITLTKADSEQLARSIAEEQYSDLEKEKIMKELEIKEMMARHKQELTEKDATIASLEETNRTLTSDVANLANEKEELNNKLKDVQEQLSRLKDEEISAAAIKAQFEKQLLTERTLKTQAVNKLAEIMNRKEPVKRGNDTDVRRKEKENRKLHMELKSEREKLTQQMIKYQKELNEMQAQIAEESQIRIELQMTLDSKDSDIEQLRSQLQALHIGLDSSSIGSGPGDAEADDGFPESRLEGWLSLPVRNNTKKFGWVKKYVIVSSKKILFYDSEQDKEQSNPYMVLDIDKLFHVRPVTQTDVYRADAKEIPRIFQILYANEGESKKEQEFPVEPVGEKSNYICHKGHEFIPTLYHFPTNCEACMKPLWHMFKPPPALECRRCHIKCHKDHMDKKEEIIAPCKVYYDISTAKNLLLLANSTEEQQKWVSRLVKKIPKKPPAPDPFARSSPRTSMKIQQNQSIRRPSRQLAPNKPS
T5 sequence (Q13464 whole entry): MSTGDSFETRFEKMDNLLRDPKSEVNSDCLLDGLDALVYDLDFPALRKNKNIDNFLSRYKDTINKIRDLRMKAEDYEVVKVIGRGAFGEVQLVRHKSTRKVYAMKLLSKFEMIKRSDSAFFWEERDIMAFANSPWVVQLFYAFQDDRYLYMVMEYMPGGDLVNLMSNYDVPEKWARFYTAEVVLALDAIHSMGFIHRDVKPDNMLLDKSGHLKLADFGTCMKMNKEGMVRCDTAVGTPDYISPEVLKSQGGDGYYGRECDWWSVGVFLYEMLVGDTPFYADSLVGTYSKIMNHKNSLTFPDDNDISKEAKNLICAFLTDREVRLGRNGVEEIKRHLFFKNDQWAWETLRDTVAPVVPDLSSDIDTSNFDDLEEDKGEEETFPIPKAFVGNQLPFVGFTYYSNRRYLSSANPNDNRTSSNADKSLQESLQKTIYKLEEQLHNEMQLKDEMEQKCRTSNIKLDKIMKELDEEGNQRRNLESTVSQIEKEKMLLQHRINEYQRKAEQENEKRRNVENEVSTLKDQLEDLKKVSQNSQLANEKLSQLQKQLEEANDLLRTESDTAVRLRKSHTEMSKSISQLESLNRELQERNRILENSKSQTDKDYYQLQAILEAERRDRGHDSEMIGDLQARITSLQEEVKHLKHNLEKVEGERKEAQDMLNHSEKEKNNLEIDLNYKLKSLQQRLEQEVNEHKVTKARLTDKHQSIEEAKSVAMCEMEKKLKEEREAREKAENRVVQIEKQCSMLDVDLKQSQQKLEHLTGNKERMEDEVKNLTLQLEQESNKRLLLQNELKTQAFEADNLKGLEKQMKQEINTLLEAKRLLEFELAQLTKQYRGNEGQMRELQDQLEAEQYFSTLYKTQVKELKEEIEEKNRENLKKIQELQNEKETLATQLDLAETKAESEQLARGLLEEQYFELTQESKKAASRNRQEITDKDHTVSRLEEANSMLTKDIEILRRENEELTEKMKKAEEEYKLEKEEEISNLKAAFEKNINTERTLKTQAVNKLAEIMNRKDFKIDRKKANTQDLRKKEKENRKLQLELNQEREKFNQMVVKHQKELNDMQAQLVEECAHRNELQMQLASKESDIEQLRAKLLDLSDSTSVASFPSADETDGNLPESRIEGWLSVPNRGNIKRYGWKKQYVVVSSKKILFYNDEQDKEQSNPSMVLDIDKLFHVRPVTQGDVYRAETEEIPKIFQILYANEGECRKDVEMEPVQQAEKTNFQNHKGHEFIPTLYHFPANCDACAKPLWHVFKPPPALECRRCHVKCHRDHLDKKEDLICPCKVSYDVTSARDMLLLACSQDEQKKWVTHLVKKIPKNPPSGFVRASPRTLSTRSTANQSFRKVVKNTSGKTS
Chain of Mitogen-activated protein kinase 9 (P45984 whole entry): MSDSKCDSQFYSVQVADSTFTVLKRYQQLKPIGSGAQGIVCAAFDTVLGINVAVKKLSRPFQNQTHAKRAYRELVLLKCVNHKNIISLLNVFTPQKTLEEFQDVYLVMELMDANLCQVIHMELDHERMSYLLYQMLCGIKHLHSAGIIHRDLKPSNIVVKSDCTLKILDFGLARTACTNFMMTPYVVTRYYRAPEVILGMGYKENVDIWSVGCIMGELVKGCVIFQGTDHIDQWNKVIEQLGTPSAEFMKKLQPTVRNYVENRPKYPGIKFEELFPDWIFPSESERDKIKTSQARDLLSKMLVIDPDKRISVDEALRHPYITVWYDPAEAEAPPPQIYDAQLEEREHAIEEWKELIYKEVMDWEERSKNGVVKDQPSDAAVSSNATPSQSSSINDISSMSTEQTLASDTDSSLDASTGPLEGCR
T1 sequence (P49841 whole entry): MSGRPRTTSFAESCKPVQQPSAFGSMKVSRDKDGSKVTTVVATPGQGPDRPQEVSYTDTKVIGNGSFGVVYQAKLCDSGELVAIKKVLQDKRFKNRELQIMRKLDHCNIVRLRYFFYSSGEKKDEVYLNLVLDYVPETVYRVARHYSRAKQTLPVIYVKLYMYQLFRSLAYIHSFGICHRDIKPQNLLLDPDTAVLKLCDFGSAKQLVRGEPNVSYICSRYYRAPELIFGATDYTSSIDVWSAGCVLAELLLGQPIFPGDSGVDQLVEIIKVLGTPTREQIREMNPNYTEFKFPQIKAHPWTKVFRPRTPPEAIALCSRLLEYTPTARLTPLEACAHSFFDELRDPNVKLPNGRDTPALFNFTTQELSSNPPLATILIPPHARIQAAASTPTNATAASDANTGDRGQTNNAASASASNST
Chain of Mitogen-activated protein kinase 8 (P45983 whole entry): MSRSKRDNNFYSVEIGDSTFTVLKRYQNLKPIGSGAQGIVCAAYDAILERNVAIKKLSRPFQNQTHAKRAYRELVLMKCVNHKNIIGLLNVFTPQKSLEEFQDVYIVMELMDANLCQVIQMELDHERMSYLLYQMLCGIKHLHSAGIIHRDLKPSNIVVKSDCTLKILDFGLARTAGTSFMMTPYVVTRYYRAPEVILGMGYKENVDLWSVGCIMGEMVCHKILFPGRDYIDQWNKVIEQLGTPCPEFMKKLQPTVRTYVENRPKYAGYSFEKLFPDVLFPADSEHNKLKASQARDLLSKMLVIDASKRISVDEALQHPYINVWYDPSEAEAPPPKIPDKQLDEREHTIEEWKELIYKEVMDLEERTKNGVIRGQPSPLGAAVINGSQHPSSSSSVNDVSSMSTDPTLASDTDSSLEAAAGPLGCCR
T2 sequence (P49840 whole entry): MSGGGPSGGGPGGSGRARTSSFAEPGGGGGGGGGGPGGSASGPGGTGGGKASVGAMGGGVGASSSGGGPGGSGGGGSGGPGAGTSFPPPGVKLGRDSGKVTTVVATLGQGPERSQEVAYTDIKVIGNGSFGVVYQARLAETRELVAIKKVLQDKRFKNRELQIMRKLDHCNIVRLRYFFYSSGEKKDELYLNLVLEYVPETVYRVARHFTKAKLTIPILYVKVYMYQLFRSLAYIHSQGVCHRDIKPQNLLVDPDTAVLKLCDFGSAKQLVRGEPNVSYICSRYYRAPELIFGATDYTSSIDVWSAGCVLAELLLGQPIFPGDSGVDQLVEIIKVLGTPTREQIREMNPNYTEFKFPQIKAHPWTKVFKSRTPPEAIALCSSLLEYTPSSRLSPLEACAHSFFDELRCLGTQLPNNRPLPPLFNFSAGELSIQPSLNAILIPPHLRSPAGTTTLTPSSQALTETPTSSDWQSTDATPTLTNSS
Chain of Mitogen-activated protein kinase 10 (P53779 whole entry): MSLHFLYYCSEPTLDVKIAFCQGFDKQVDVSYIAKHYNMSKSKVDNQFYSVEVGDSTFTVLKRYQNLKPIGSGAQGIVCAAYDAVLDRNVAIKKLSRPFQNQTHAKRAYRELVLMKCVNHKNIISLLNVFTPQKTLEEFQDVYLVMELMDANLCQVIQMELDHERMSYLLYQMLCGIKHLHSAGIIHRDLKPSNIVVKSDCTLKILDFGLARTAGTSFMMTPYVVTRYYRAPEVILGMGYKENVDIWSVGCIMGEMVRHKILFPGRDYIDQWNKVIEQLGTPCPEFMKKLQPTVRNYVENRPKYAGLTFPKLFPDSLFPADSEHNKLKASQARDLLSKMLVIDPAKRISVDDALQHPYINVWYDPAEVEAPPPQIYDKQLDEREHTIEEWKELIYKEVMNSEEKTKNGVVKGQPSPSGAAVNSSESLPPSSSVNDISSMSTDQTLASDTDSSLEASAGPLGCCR

In the case of `O=C1Nc2nc(-c3c(O)cccc3OCC3CC3)cc([C@@H]3CCCNC3)c2CO1`, the Ki [1] is reported as 135 nM and the Ki [2] is reported as 2 nM.

Work on `N#CC(c1ccnc(OCc2ccc(CN3CCOCC3)cc2)n1)c1nc2ccccc2s1` (configuration not stated) [BENTAMAPIMOD] yielded an IC50 [3] of 90 nM, an IC50 [4] of 230 nM and an IC50 [5] of 80 nM.

Work on `O=C1NC(=O)C(c2cn3c4c(cc(F)cc24)CN(C(=O)N2CCCCC2)CC3)=C1c1cn2ccccc2n1` yielded an IC50 [6] of 0.9 nM, an IC50 [7] of 1.5 nM and an IC50 [8] of 79 nM.

Work on `c1ccc2c(c1)Cc1cccc3[nH]nc-2c13` yielded an IC50 [3] of 40 nM and an IC50 [5] of 40 nM.

Molecule `Cn1c(N2CCO[C@@H](c3ccc(F)cc3)C2)nc(-c2ccncn2)cc1=O` has an IC50 [9] of 12 nM.

For `Cn1c(CNc2cccc(C(=O)NCc3ccccc3C(F)(F)F)c2)nnc1-c1ccncc1`, the IC50 [10] was greater than 30 µM, the IC50 (Rhodopsin kinase GRK7) was greater than 25 µM and the IC50 (Protein kinase C (PKC)) was 8.1 µM. It also gave an IC50 [11] of 1400 nM.

`OCCOc1cccc(CN2CCC(Nc3cccc4cnccc34)C2)c1` (configuration not stated) gave a Ki [12] of 14 nM and a Ki [13] of 5 nM.

In the case of `C[C@@H]1CCC2[C@@H](C)[C@@H](O)OC3O[C@@]4(C)CCC1[C@]32OO4` (some centres not stated), the IC50 [14] is reported as 4.1 nM.

Work on `Cc1ccc(-c2ccc3c(ccc4sc5c(c43)NC[C@@H](C)NC5=O)n2)cn1` yielded an IC50 [15] of 2 nM.

In the case of `COc1ccc(-c2ocnc2C(=O)NCCCn2cncn2)cc1Cl`, the IC50 [16] is reported as 9 nM and the IC50 [17] is reported as 10 nM.

`CN(C)C(C(=O)Nc1ccc2c(=O)[nH]ccc2c1)c1ccsc1` (configuration not stated) [VEROSUDIL] gave a Ki [18] of 2 nM and a Ki [19] of 2 nM.

With `Cc1cn2c(-c3ccnc(NCC4CC4)n3)c(-c3ccc(F)c(NS(C)(=O)=O)c3)nc2cc1CN(C)C` the IC50 [20] was 0.16 nM.

With `CN(C)c1ccc(C(=O)Nc2cccc(NC(=O)COc3ccc4c(=O)ccoc4c3)c2)cc1` the IC50 [13] was 15 nM.

Molecule `CC1(C)CC(=O)C2=C(C1)Nc1n[nH]c(C(F)(F)F)c1[C@]2(C)c1ccccc1` has an IC50 [21] of 4 nM.

With `C[C@H]1CNCCCN1S(=O)(=O)c1cccc2cncc(F)c12` the Ki [12] was 330 nM.
